Drawing on ChEMBL document CHEMBL1147600, “Synthesis of 5'-C-methyl-1',3'-dioxolan-4'-yl nucleosides” (Bioorg Med Chem Lett, 2004), this text covers Activity and Toxicity for five compounds.

For data set [1], the system named is Hepatitis B virus. Nature of the data set: Compound was evaluated against hepatitis B virus; IA means inactive. It is filed as functional, organism-based.
The subject of data set [2] is Hepatitis C virus. Nature of the data set: Compound was evaluated against hepatitis C virus; IA means inactive. It is filed as functional, organism-based. The conditions noted are these: Hepacivirus hominis.
Data set [3] is described as follows: Toxicity against human lymphocytes was determined up to 100 uM concentration; NA means Not Active.
In another data set the test system is Huh-7. Nature of the data set: Toxicity against human Huh7 cells was determined up to 100 uM concentration; NA means Not Active. The data set is classed as cell-based.
For the next data set, the system named is HepG2. Nature of the data set: Toxicity against human hepatoma HepG2 cells was determined up to 100 uM concentration; NA means Not Active. The data set is classed as cell-based.
In data set [4] the test system is Hepatitis B virus. Description: Activity of compound against hepatitis B virus was determined; IA means inactive. The data set is classed as functional, organism-based.
The test system of data set [5] is Hepatitis C virus. Description: Activity of compound against hepatitis C virus was determined; IA means inactive. The data set is classed as functional, organism-based. The note with it: Hepacivirus hominis.

The structures appear in SMILES notation. Calls of active or inactive are those of the source. No cut-off for these calls is given here.

As to `C[C@@H]1OC(CO)OC1n1cc(F)c(N)nc1=O` (stereo not given in full), the result in the data set with Hepatitis B virus [1] and with Hepatitis C virus [2] was inactive. Moreover, the Toxicity result (in data set [3]; in the data set with Huh-7; in the data set on HepG2) was “Not Active” each time.
For `C[C@H]1O[C@@H](CO)O[C@@H]1n1cc(F)c(N)nc1=O`, the result with Hepatitis B virus [1] and in the data set on Hepatitis C virus [2] was inactive. The Toxicity entry (in data set [3]; in the data set with Huh-7; in the data set with HepG2) was “Not Active” in each case.
In the case of `C[C@H]1O[C@@H](COC(=O)c2ccccc2)O[C@@H]1n1cc(F)c(N)nc1=O`, the outcome with Hepatitis B virus [4] and in the data set on Hepatitis C virus [5] was inactive. Moreover, the Toxicity result (in data set [3]; in the data set on Huh-7; in the data set on HepG2) was “Not Active” in each case.
In the case of `C[C@H]1O[C@@H](COC(=O)c2ccccc2)O[C@H]1n1cc(F)c(N)nc1=O`, the outcome with Hepatitis B virus [1] and with Hepatitis C virus [2] was inactive. Besides, the Toxicity entry (in data set [3]; with Huh-7; with HepG2) was “Not Active” throughout.
As to `C[C@H]1O[C@@H](CO)O[C@H]1n1cc(F)c(N)nc1=O`, the result with Hepatitis B virus [1] and in the data set with Hepatitis C virus [2] was inactive. In addition, the Toxicity entry (in data set [3]; with Huh-7; in the data set on HepG2) was “Not Active” each time.
